The text below walks through data of patent publication US8008303B2, “Biphenyl derivatives and their use in treating hepatitis C” (AstraZeneca AB, priority 2005, dated 2011).

Data set [1] relates to HCV replicon cells Huh 9B. Put plainly: HCV replicon assay (luciferase readout). The data set is classed as cell-based. In outline:
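Compounds, made up at twice final strength (final DMSO 1%), were added to subgenomic replicon cells one day after plating. Incubation then ran 72 h at 37 °C, 5% CO2, without G418. Replication was quantified as firefly luciferase luminescence in lysed cells, with cytotoxicity assessed on a duplicate clear plate.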
On the technique in general: A replicon is a self-replicating genome or part of one, used to study replication in cells.

The subject of data set [2] is HCV replicon cells Huh 9B. Type of data set: cell-based.
Setting [3] is: Hepatitis C virus, 72 h, concentration reducing replicon level (luciferase activity) by 50% vs untreated cell control, 72 h incubation.
Where [4] appears, read: concentration reducing total cell area by 50% relative to DMSO controls, methylene blue, absorbance 620 nm, 72 h incubation.

The structures appear in SMILES notation. Read-outs that look alike come from different tables or passages of the source.

A word on the IC50: it is the concentration needed to halve the response being measured. Lower therefore signals greater potency in that assay. Take `Cc1ccc(NC(=O)C2CCCCC2)cc1-c1ccc(C(=O)Nc2ccc(CO)cc2)cc1` [Example 232, 5′-(Cyclohexanecarbonyl-amino)-2′-methyl-biphenyl-4-carboxylic acid (4-hydroxymethyl-phenyl)-amide]: in data set [1] (setting [3]), the IC50 was under 1000 nM. Moreover, the TD50 entry in data set [2] (setting [4]) is reported as “* (* < 50 μM)”.

Consider `CCc1nnc(NC(=O)c2ccc(C)c(-c3ccc(C(=O)Nc4ccc(CN5CCS(=O)(=O)CC5)cc4)cc3)c2)s1` [Example 143, 6-Methyl-biphenyl-3,4′-dicarboxylic acid 4′-{[4-(1,1-dioxo-1lambda*6*-thiomorpholin-4-ylmethyl)-phenyl]-amide} 3-[(5-ethyl-[1,3,4]thiadiazol-2-yl)-amide]], for which the IC50 in data set [1] fell in the range of 1000 to 5000 nM. In addition, in data set [2], the TD50 result is “* (key: * < 50 μM; ** > 50 μM)”.

With `Cc1ccc(C(=O)Nc2ccc(N3CCOCC3)cc2)cc1-c1ccc(CNC(CO)Cc2cnc[nH]2)cc1` (stereo not drawn) [Example 101, 4′-{[1-Hydroxymethyl-2-(3H-imidazol-4-yl)-ethylamino]-methyl}-6-methyl-biphenyl-3-carboxylic acid (4-morpholin-4-yl-phenyl)-amide], in data set [1] (setting [3]), the IC50 was under 1000 nM. Further, in data set [2] (setting [4]), the TD50 entry was “* (* < 50 μM)”.

The compound `Cc1ccc(C(=O)Nc2ccc(N3CCOCC3)cc2)cc1-c1ccc(C(=O)NCc2cccc(Cl)c2)cc1` [Example 83, 6-Methyl-biphenyl-3,4′-dicarboxylic acid 4′-(3-chloro-benzylamide) 3-[(4-morpholin-4-yl-phenyl)-amide]] gave an IC50 in data set [1] of 1000 to 5000 nM. In addition, the TD50 entry in data set [2] is listed as “** (key: * < 50 μM; ** > 50 μM)”.

As to `Cc1ccc(NC(=O)c2ccc(N3CCOCC3)cc2)cc1-c1ccc(C(=O)Nc2cccc(OC(F)(F)F)c2)cc1` [Example 68, 2′-Methyl-5′-(4-morpholin-4-yl-benzoylamino)-biphenyl-4-carboxylic acid (3-trifluoromethoxy-phenyl)-amide], the IC50 in data set [1] (setting [3]) was 1000 to 5000 nM. In data set [2] (setting [4]), the TD50 entry is reported as “** (** > 50 μM)”.

The compound `COc1ccc(NC(=O)c2ccc(-c3cc(C(=O)Nc4ccc(N5CCOCC5)cc4)ccc3C)cc2)cn1` [Example 2, 6-Methyl-biphenyl-3,4′-dicarboxylic acid 4′-[(6-methoxy-pyridin-3-yl)-amide] 3-[(4-morpholin-4-yl-phenyl)-amide]] showed an IC50 in data set [1] of 1000 to 5000 nM. For the same compound, in data set [2], the TD50 result was “** (key: * < 50 μM; ** > 50 μM)”.

`CNCC(=O)Nc1ccc(Cl)c(-c2ccc(C(=O)Nc3ccc(CN4CCN(S(C)(=O)=O)CC4)cc3)cc2)c1` [Example 252, 2′-Chloro-5′-(2-methylamino-acetylamino)-biphenyl-4-carboxylic acid [4-(4-methanesulfonyl-piperazin-1-ylmethyl)-phenyl]-amide] registered an IC50 in data set [1] (setting [3]) of under 1000 nM. Further, in data set [2] (setting [4]), the TD50 entry was “* (* < 50 μM)”.

In data set [1] (setting [3]), `O=C(Nc1ccc(CN2CCS(=O)(=O)CC2)cc1)c1ccc(-c2cc(NC(=O)C3CCCCC3)ccc2Cl)cc1` [Example 193, 5′-(Cyclohexanecarbonyl-amino)-2′-chloro-biphenyl-4-carboxylic acid [4-(1,1-dioxo-1lambda*6*-thiomorpholin-4-ylmethyl)-phenyl]-amide] registered an IC50 of under 1000 nM. For the same compound, the TD50 result in data set [2] (setting [4]) is on record as “* (* < 50 μM)”.

For the compound `Cc1ccc(NC(=O)C2CCCCC2)cc1-c1ccc(C(=O)Nc2ccc(CN(C)C)cc2)cc1` [Example 222, 5′-(Cyclohexanecarbonyl-amino)-2′-methyl-biphenyl-4-carboxylic acid (4-dimethylaminomethyl-phenyl)-amide], the IC50 in data set [1] (setting [3]) is 1000 to 5000 nM. Moreover, in data set [2] (setting [4]), the TD50 result is “* (* < 50 μM)”.

For `Cc1ccc(CNc2cccc(Br)c2)cc1-c1ccc(C(=O)Nc2ccc(CN3CCS(=O)(=O)CC3)cc2)cc1` [Example 198, 5′-[(3-Bromo-phenylamino)-methyl]-2′-methyl-biphenyl-4-carboxylic acid [4-(1,1-dioxo-1lambda*6*-thiomorpholin-4-ylmethyl)-phenyl]-amide], in data set [1] (setting [3]), the IC50 was in the range of 1000 to 5000 nM. Moreover, the TD50 result in data set [2] (setting [4]) is “* (* < 50 μM)”.

For `Cc1ccc(C(=O)Nc2ccc(N3CCOCC3)cc2)cc1-c1ccc(C(=O)Nc2ccc3[nH]c(C(F)(F)F)nc3c2)cc1` [Example 38, 6-Methyl-biphenyl-3,4′-dicarboxylic acid 3-[(4-morpholin-4-yl-phenyl)-amide] 4′-[(2-trifluoromethyl-1H-benzoimidazol-5-yl)-amide]], the half-inhibitory concentration (IC50) in data set [1] lay in the range of 1000 to 5000 nM. In data set [2], the TD50 entry is given as “** (key: * < 50 μM; ** > 50 μM)”.

The compound `Cc1ccc(-c2noc(C3CC3)n2)cc1-c1ccc(C(=O)Nc2ccc(CN3CCS(=O)(=O)CC3)cc2)cc1` [Example 205, 5′-(5-Cyclopropyl-[1,2,4]oxadiazol-3-yl)-2′-methyl-biphenyl-4-carboxylic acid [4-(1,1-dioxo-1lambda*6*-thiomorpholin-4-ylmethyl)-phenyl]-amide] displayed an IC50 in data set [1] (setting [3]) of over 5000 nM. Moreover, the TD50 result in data set [2] (setting [4]) is recorded as “* (* < 50 μM)”.

In data set [1] (setting [3]), `Cc1ccc(NC(=O)C2CCCCCC2)cc1-c1ccc(C(=O)Nc2ccc(CN3CCS(=O)(=O)CC3)cc2)cc1` [Example 164, 5′-(Cycloheptanecarbonyl-amino)-2′-methyl-biphenyl-4-carboxylic acid [4-(1,1-dioxo-1lambda*6*-thiomorpholin-4-ylmethyl)-phenyl]-amide] registered an IC50 of under 1000 nM. The TD50 result in data set [2] (setting [4]) is recorded as “* (* < 50 μM)”.

As for `CC(C)S(=O)(=O)N1CCN(Cc2ccc(NC(=O)c3ccc(-c4cc(NC(=O)NC5CCCCC5)ccc4Cl)cc3)cc2)CC1` [Example 254, 2′-Chloro-5′-(3-cyclohexyl-ureido)-biphenyl-4-carboxylic acid {4-[4-(propane-2-sulfonyl)-piperazin-1-ylmethyl]-phenyl}-amide], in data set [1] (setting [3]), the IC50 was under 1000 nM. For the same compound, the TD50 entry in data set [2] (setting [4]) is listed as “* (* < 50 μM)”.

Take `Cc1ccc(C(=O)Nc2ccc(N(C)C)cc2)cc1-c1ccc(C(=O)Nc2ccc(CN3CCS(=O)(=O)CC3)cc2)cc1` [Example 130, 6-Methyl-biphenyl-3,4′-dicarboxylic acid 3-[(4-dimethylamino-phenyl)-amide] 4′-{[4-(1,1-dioxo-1lambda*6*-thiomorpholin-4-ylmethyl)-phenyl]-amide}]: the IC50 in data set [1] is under 1000 nM. The TD50 entry in data set [2] is “* (key: * < 50 μM; ** > 50 μM)”.

On to `Cc1ccc(C(=O)Nc2ccc(C(=O)N(C)C)cc2)cc1-c1ccc(C(=O)Nc2ccc(CN3CCS(=O)(=O)CC3)cc2)cc1` [Example 142, 6-Methyl-biphenyl-3,4′-dicarboxylic acid 3-[(4-dimethylcarbamoyl-phenyl)-amide] 4′-{[4-(1,1-dioxo-1lambda*6*-thiomorpholin-4-ylmethyl)-phenyl]-amide}], for which, in data set [1], the IC50 lay in the range of 1000 to 5000 nM. Also, in data set [2], the TD50 result is reported as “* (key: * < 50 μM; ** > 50 μM)”.

In data set [1] (setting [3]), `Cc1ccc(NC(=O)C2CC2)cc1-c1ccc(C(=O)Nc2cccc(CN(C)C)c2)cc1` [Example 225, 5′-(Cyclopropanecarbonyl-amino)-2′-methyl-biphenyl-4-carboxylic acid (3-dimethylaminomethyl-phenyl)-amide] displayed an IC50 of over 5000 nM. Besides, the TD50 entry in data set [2] (setting [4]) is recorded as “* (* < 50 μM)”.

With `Cc1ccc(C(=O)Nc2ccc(N3CCOCC3)cc2)cc1-c1ccc(C(=O)Nc2ccc(-c3ccno3)cc2)cc1` [Example 28, 6-Methyl-biphenyl-3,4′-dicarboxylic acid 4′-[(4-isoxazol-5-yl-phenyl)-amide] 3-[(4-morpholin-4-yl-phenyl)-amide]], the IC50 in data set [1] is under 1000 nM. Besides, in data set [2], the TD50 result was “** (key: * < 50 μM; ** > 50 μM)”.

The compound `Cc1ccc(C(=O)Nc2ccc(N3CCOCC3)cc2)cc1-c1ccc(NC(=O)Cc2cccc(Cl)c2)cc1` [Example 106, 4′-[2-(3-Chloro-phenyl)-acetylamino]-6-methyl-biphenyl-3-carboxylic acid (4-morpholin-4-yl-phenyl)-amide] returned an IC50 in data set [1] (setting [3]) of 1000 to 5000 nM. In data set [2] (setting [4]), the TD50 entry was “** (** > 50 μM)”.

Turning to `Cc1ccc(C(=O)NCCN2CCCCC2)cc1-c1ccc(C(=O)Nc2ccc(CN3CCS(=O)(=O)CC3)cc2)cc1` [Example 125, 6-Methyl-biphenyl-3,4′-dicarboxylic acid 4′-{[4-(1,1-dioxo-1lambda*6*-thiomorpholin-4-ylmethyl)-phenyl]-amide} 3-[(2-piperidin-1-yl-ethyl)-amide]], the IC50 in data set [1] is 1000 to 5000 nM. The TD50 result in data set [2] is recorded as “* (key: * < 50 μM; ** > 50 μM)”.

In turn, `Cc1ccc(NC(=O)C2CCCCC2)cc1-c1ccc(C(=O)Nc2ccc(-n3cncn3)cc2)cc1` [Example 219, 5′-(Cyclohexanecarbonyl-amino)-2′-methyl-biphenyl-4-carboxylic acid (4-[1,2,4]triazol-1-yl-phenyl)-amide] yielded an IC50 in data set [1] (setting [3]) of 1000 to 5000 nM. Further, the TD50 result in data set [2] (setting [4]) is “* (* < 50 μM)”.

Turning to `Cc1ccc(C(=O)NCCCN2CCN(C)CC2)cc1-c1ccc(C(=O)Nc2ccc(N3CCOCC3)cc2)cc1` [Example 9, 6-Methyl-biphenyl-3,4′-dicarboxylic acid 3-{[3-(4-methyl-piperazin-1-yl)-propyl]-amide} 4′-[(4-morpholin-4-yl-phenyl)-amide]], in data set [1], the 50% inhibitory concentration (IC50) was over 5000 nM. Besides, the TD50 result in data set [2] is “* (key: * < 50 μM; ** > 50 μM)”.

In data set [1] (setting [3]), `Cc1ccc(NC(=O)c2cccn2C)cc1-c1ccc(C(=O)Nc2ccc(CN3CCS(=O)(=O)CC3)cc2)cc1` [Example 157, 1-Methyl-1H-pyrrole-2-carboxylic acid {4′-[4-(1,1-dioxo-1lambda*6*-thiomorpholin-4-ylmethyl)-phenylcarbamoyl]-6-methyl-biphenyl-3-yl}-amide] returned an IC50 of under 1000 nM. Also, the TD50 entry in data set [2] (setting [4]) is listed as “* (* < 50 μM)”.

`Cc1ccc(C(=O)NCC2CCCO2)cc1-c1ccc(C(=O)Nc2ccc(CN3CCS(=O)(=O)CC3)cc2)cc1` (stereo not drawn) [Example 124, 6-Methyl-biphenyl-3,4′-dicarboxylic acid 4′-{[4-(1,1-dioxo-1lambda*6*-thiomorpholin-4-ylmethyl)-phenyl]-amide} 3-[(tetrahydro-furan-2-ylmethyl)-amide]]: the IC50 in data set [1] fell in the range of 1000 to 5000 nM. Moreover, in data set [2], the TD50 entry is on record as “* (key: * < 50 μM; ** > 50 μM)”.
